Assay results: patent US20080004317A1, “Compounds” (AstraZeneca AB, priority 2004, published 2008)
Converted amounts (≈) assume the structure as drawn.

Legend:
[1] = Solubility in 0.1M phosphate buffer, pH 7.4; type: physicochemical; conditions: aqueous buffer, thermodynamic from solid, pH 7.4, 20° C.
Description: Protocol for Determination of Solubility
The test compound (1 mg) was weighed into a 2 mL glass vial with a screw cap and 0.1M phosphate buffer pH 7.4. (1.00 mL) was added. The sample vial was then sonicated for about 10 minutes and then placed on a shake board overnight at 20° C. The contents of the sample vial were then filtered through a Millipore Millex-LH 0.45 μm filter into a new 2 mL glass vial to give a clear solution. The clear solution (40 μL) was transferred to a new 2 mL glass vial and diluted with 0.1M phosphate buffer, pH 7.4 (960 μL).
A standard calibration curve for each particular test compound was established using solutions of known concentration. These solutions of known concentration were normally chosen to have concentrations of ˜10 μg/mL and ˜50 μg/mL. They were prepared by dissolving a known weight of the compound in 99.5% ethanol (500 μL) and then sonicating for one minute if necessary. If the compound was still not completely dissolved, DMSO (500 μL) was added and the mixture sonicated for an additional one minute. The resulting solution was then diluted to the appropriate volume with a mixture of acetonitrile/100 mM ammonium acetate pH 5.5 20-50/80-50. If necessary, a further, more dilute, standard solution was prepared by dilution.

[2] = biological target: T1, Recombinant human MMP9 catalytic domain (Homo sapiens, UniProt P14780); assay: MMP9 isolated enzyme assay; type: biochemical; conditions: read-out: hMMP9 IC50
T1 sequence (P14780 with tags, fused parts or gaps DEL216-390 limits assumed): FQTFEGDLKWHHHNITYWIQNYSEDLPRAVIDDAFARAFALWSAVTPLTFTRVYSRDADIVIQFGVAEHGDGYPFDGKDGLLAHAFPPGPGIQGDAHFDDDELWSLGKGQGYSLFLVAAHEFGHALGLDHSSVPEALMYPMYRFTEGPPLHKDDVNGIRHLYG
Description: Recombinant human MMP9 catalytic domain was expressed and then purified by Zn chelate column chromatography followed by hydroxamate affinity column chromatography. The enzyme can be used to monitor inhibitors of activity as follows: MMP9 (5 ng/ml final concentration) is incubated for 30 minutes at RT with the synthetic substrate Mca-Pro-Cha-Gly-Nva-His-Ala-Dpa-NH2 (5 μM) in assay buffer (0.1M “Tris-HCl”™ buffer, pH 7.3 containing 0.1M NaCl, 20 mM CaCl2, 0.020 mM ZnCl and 0.05% (w/v) “Brij 35”™ detergent) in the presence (10 concentrations) or absence of inhibitors. Activity is determined by measuring the fluorescence at λex 320 nm and λem 405 nm. Percent inhibition is calculated as follows: % Inhibition is equal to the [Fluorescenceplus inhibitor−Fluorescencebackground] divided by the [Fluorescenceminus inhibitor−Fluorescencebackground]. MMP14
A protocol for testing against other matrix metalloproteinases, including MMP9, using expressed and purified pro MMP is described, for instance, by C. Graham Knight et al., (1992) FEBS Lett., 296(3), 263-266.

plasma protein = assay: Plasma protein binding by ultrafiltration; type: in vitro ADME; conditions: 10 μM
Description: Plasma protein binding was determined by ultrafiltration in an automated 96 well format assay. On each test occasion the plasma protein binding of a reference compound (budesonide) was monitored in parallel.
Test compounds (10 mM dissolved in DMSO) were added to plasma to a final concentration of 10 μM and equilibrated at room temperature for 10 minutes. 350 μL of the plasma was transferred to an ultrafiltration plate, Microcon-96 (10 kDa cutoff, Millipore). The ultrafiltration plate was centrifuged at 3000 G for 70 minutes at room temperature. After centrifugation, the concentration of the compounds in the obtained plasma water (the unbound fraction) was determined by LC-MS/MS using a 3-point calibration curve and compared to the concentration in the original spiked plasma.
The analyses were performed using a gradient chromatographic system with acetic acid/acetonitrile as mobile phases. The detection was done using a triple quadropole mass spectrometer, API3000 or API4000, from Applied Biosystems, with an electrospray interface.

[3] = biological target: T2, Recombinant human MMP14 catalytic domain (Homo sapiens, UniProt P50281); assay: MMP14 isolated enzyme assay; type: biochemical; conditions: read-out: hMMP14 IC50
T2 construct: Recombinant human MMP14 catalytic domain; made in house
Description: Recombinant human MMP14 catalytic domain may be expressed and purified as described by Parkar A. A. et al, (2000), Protein Expression and Purification, 20, 152. The purified enzyme can be used to monitor inhibitors of activity as follows: MMP14 (10 ng/ml final concentration) is incubated for 60 minutes at room temperature with the synthetic substrate Mca-Pro-Cha-Gly-Nva-His-Ala-Dpa-NH2 (10 μM) in assay buffer (0.1M “Tris-HCl” (trade mark) buffer, pH 7.5 containing 0.1M NaCl, 20 mM CaCl2, 0.020 mM ZnCl and 0.05% (w/v) “Brij 35”™ detergent) in the presence (5 concentrations) or absence of inhibitors. Activity is determined by measuring the fluorescence at λex 320 nm and λem 405 nm. Percent inhibition is calculated as follows: % Inhibition is equal to the [Fluorescenceplus inhibitor−Fluorescencebackground] divided by the [Fluorescenceminus inhibitor−Fluorescencebackground].

[4] = biological target: T3, Recombinant human MMP12 catalytic domain (Homo sapiens, UniProt P39900); assay: MMP12 isolated enzyme assay; type: biochemical; conditions: read-out: hMMP12 IC50
T3 construct: Recombinant human MMP12 catalytic domain; made in house
T3 sequence (P39900 106-263 limits assumed): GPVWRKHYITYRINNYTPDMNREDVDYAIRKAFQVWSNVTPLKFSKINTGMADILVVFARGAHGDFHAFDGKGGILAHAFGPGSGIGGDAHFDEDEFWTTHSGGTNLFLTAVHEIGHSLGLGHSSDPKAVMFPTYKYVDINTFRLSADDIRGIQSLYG
Description: Recombinant human MMP12 catalytic domain may be expressed and purified as described by Parkar A. A. et al, (2000), Protein Expression and Purification, 20, 152. The purified enzyme can be used to monitor inhibitors of activity as follows: MMP12 (50 ng/ml final concentration) is incubated for 60 minutes at room temperature with the synthetic substrate Mca-Pro-Cha-Gly-Nva-His-Ala-Dpa-NH2 (10 μM) in assay buffer (0.1M “Tris-HCl”™ buffer, pH 7.3 containing 0.1M NaCl, 20 mM CaCl2, 0.020 mM ZnCl and 0.05% (w/v) “Brij 35”™ detergent) in the presence (10 concentrations) or absence of inhibitors. Activity is determined by measuring the fluorescence at λex 320 nm and λem 405 nm. Percent inhibition is calculated as follows: % Inhibition is equal to the [Fluorescenceplus inhibitor−Fluorescencebackground] divided by the [Fluorescenceminus inhibitor−Fluorescencebackground]. MMP8

MMP8 = biological target: T4, MMP8 (Homo sapiens, UniProt P22894); assay: MMP8 isolated enzyme assay; type: biochemical; conditions: read-out: hMMP8 IC50
T4 construct: purchased Calbiochem
T4 sequence (P22894 101-467): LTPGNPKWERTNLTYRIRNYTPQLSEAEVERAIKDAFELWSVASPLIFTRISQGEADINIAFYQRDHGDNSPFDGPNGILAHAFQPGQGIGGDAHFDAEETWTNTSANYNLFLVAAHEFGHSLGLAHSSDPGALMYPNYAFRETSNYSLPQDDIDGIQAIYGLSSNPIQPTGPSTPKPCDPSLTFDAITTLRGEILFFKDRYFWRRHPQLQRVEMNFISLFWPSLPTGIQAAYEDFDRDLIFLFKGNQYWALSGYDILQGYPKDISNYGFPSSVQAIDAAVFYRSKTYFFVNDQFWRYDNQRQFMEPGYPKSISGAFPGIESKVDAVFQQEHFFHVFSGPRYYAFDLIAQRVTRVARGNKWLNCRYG
Description: Purified pro-MMP8 is purchased from Calbiochem. The enzyme (at 10 μg/ml) is activated by p-amino-phenyl-mercuric acetate (APMA) at 1 mM for 2.5 h, 35° C. The activated enzyme can be used to monitor inhibitors of activity as follows: MMP8 (200 ng/ml final concentration) is incubated for 90 minutes at 35° C. (80% H2O) with the synthetic substrate Mca-Pro-Cha-Gly-Nva-His-Ala-Dpa-NH2 (12.5 μM) in assay buffer (0.1M “Tris-HCl”™ buffer, pH 7.5 containing 0.1M NaCl, 30 mM CaCl2, 0.040 mM ZnCl and 0.05% (w/v) “Brij 35”™ detergent) in the presence (10 concentrations) or absence of inhibitors. Activity is determined by measuring the fluorescence at λex 320 nm and λem 405 nm. Percent inhibition is calculated as follows: % Inhibition is equal to the [Fluorescenceplus inhibitor−Fluorescencebackground] divided by the [Fluorescenceminus inhibitor−Fluorescencebackground]. MMP9

Row | Compound | solubility [1] | IC50 [2] | Protein binding (% free) (plasma protein) | IC50 [3] | IC50 [4] | IC50 (MMP8)
1 | CCc1ccc(C#CC2=CCN(S(=O)(=O)C[C@@]3(C)NC(=O)NC3=O)CC2)cn1 [Example 4, (5S)-5-({[4-[(6-Ethylpyridin-3-yl)ethynyl]-3,6-dihydropyridin-1-(2H)-yl]sulfonyl}methyl)-5-methylimidazolidine-2,4-dione] | 1300 µM (≈ 522 µg/mL) | 8 nM | 9.7 % free | > 10000 nM | 3 nM | 780 nM
2 | C[C@]1(CS(=O)(=O)N2CC=C(C#Cc3ccc(C(F)(F)F)nc3)CC2)NC(=O)NC1=O [Example 5, (5S)-5-Methyl-5-({[4-{[6-(trifluoromethyl)pyridin-3-yl]ethynyl}-3,6-dihydropyridin-1(2H)-yl]sulfonyl}methyl)imidazolidine-2,4-dione] | 41 µM (≈ 18.1 µg/mL) | 7 nM | – | > 10000 nM | 5 nM | 430 nM
3 | C[C@]1(CS(=O)(=O)N2CC=C(C#Cc3ccccn3)CC2)NC(=O)NC1=O [WO 02/074767, page 119, (5S)-5-methyl-5-({[4-(pyridin-2-ylethynyl)-3,6-dihydropyridin-1(2H)-yl]sulfonyl}-methyl)-imidazolidine-2,4-dione, reference compound] | 1600 µM (≈ 598 µg/mL) | 11200 nM | – | > 1000 nM | 140 nM | > 1000 nM
